Measured values taken from patent publication US11419335B2, “N-arylated analogues and uses thereof” (University of Florida Research Foundation, Incorporated, priority 2016, dated 2022).
Where two headings read alike, the source gives them in different places.

Assays:
[1] = system: Acinetobacter baumannii (ATCC 1794); test: MIC broth microdilution, A. baumannii 1794; type: cell-based; settings: Table 4
Protocol: (§1) The minimum inhibitory concentration (MIC) for each tested compound was determined by the broth microdilution method as recommended by the Clinical and Laboratory Standards Institute (CLSI). In a 96-well plate, eleven two-fold serial dilutions of each compound were made in a final volume of 100 μL Luria Broth. Each well was inoculated with ˜10^5 bacterial cells at the initial time of incubation, prepared from a fresh log phase culture (OD600 of 0.5 to 1.0 depending on bacterial strain). The MIC was defined as the lowest concentration of compound that prevented bacterial growth after incubating 16 to 18 hours at 37° C. (MIC values were supported by spectrophotometric readings at OD600). DMSO served as our vehicle and negative control in each microdilution MIC assay. DMSO was serially diluted with a top concentration of 1% v/v.
as §1, with “for each compound was” for “for each tested compound was”, “Standards Institute (CLSI).^6 In a” for “Standards Institute (CLSI). In a”, “concentration of test compound that” for “concentration of compound that”, “37° C. The concentration range tested for each compound during this study was 0.10 to 100 μM. DMSO served” for “37° C. (MIC values were supported by spectrophotometric readings at OD600). DMSO served”, “1% v/v. All MIC values were obtained from a minimum of three independent experiments.” for “1% v/v.”

[2] = system: Escherichia coli clinical isolate (UAEC-1); test: MIC broth microdilution, UAEC-1; type: cell-based; settings: Table 4
Protocol: as §1
as §1, with “for each compound was” for “for each tested compound was”, “Standards Institute (CLSI).^6 In a” for “Standards Institute (CLSI). In a”, “concentration of test compound that” for “concentration of compound that”, “37° C. The concentration range tested for each compound during this study was 0.10 to 100 μM. DMSO served” for “37° C. (MIC values were supported by spectrophotometric readings at OD600). DMSO served”, “1% v/v. All MIC values were obtained from a minimum of three independent experiments.” for “1% v/v.”

[3] = system: Pseudomonas aeruginosa (PAO1); test: MIC broth microdilution, PAO1; type: cell-based; settings: Table 4
Protocol: as §1
as §1, with “for each compound was” for “for each tested compound was”, “Standards Institute (CLSI).^6 In a” for “Standards Institute (CLSI). In a”, “concentration of test compound that” for “concentration of compound that”, “37° C. The concentration range tested for each compound during this study was 0.10 to 100 μM. DMSO served” for “37° C. (MIC values were supported by spectrophotometric readings at OD600). DMSO served”, “1% v/v. All MIC values were obtained from a minimum of three independent experiments.” for “1% v/v.”

[4] = system: methicillin-sensitive Staphylococcus aureus ATCC 29213; test: MIC broth microdilution, S. aureus 29213; type: cell-based
Protocol: as §1, with “The MIC was defined as the lowest concentration of compound that prevented bacterial growth after incubating 16 to 18 hours at 37° C.” left out
(§2) Each well was inoculated with ˜10^5 bacterial cells at the initial time of incubation, prepared from a fresh log phase culture (OD600 of 0.5 to 1.0 depending on bacterial strain). […] The concentration range tested for each compound during this study was 0.10 to 100 μM. DMSO served as our vehicle and negative control in each microdilution MIC assay. DMSO was serially diluted with a top concentration of 1% v/v. All MIC values were obtained from a minimum of three independent experiments.

[5] = system: vancomycin-resistant Enterococcus faecium (VRE strain ATCC 700221); test: MIC broth microdilution, VRE 700221; type: cell-based; settings: Table 4
Protocol: as §1
as §1, with “for each compound was” for “for each tested compound was”, “Standards Institute (CLSI).^6 In a” for “Standards Institute (CLSI). In a”, “concentration of test compound that” for “concentration of compound that”, “37° C. The concentration range tested for each compound during this study was 0.10 to 100 μM. DMSO served” for “37° C. (MIC values were supported by spectrophotometric readings at OD600). DMSO served”, “1% v/v. All MIC values were obtained from a minimum of three independent experiments.” for “1% v/v.”

[6] = system: methicillin-resistant Staphylococcus aureus MRSA-2 (clinical isolate); test: MIC broth microdilution, MRSA-2; type: cell-based; settings: for MIC: read-out: MIC MRSA-2
Protocol: as §1
as §1, with “for each compound was” for “for each tested compound was”, “Standards Institute (CLSI).^6 In a” for “Standards Institute (CLSI). In a”, “concentration of test compound that” for “concentration of compound that”, “37° C. The concentration range tested for each compound during this study was 0.10 to 100 μM. DMSO served” for “37° C. (MIC values were supported by spectrophotometric readings at OD600). DMSO served”, “1% v/v. All MIC values were obtained from a minimum of three independent experiments.” for “1% v/v.”

[7] = system: Klebsiella pneumoniae (ATCC 13883); test: MIC broth microdilution, K. pneumoniae 13883; type: cell-based; settings: Table 4
Protocol: as §1
as §1, with “for each compound was” for “for each tested compound was”, “Standards Institute (CLSI).^6 In a” for “Standards Institute (CLSI). In a”, “concentration of test compound that” for “concentration of compound that”, “37° C. The concentration range tested for each compound during this study was 0.10 to 100 μM. DMSO served” for “37° C. (MIC values were supported by spectrophotometric readings at OD600). DMSO served”, “1% v/v. All MIC values were obtained from a minimum of three independent experiments.” for “1% v/v.”

[8] = system: methicillin-resistant Staphylococcus epidermidis (MRSE strain ATCC 35984); test: MIC broth microdilution, MRSE 35984; type: cell-based; settings: Table 4
Protocol: as §1
as §1, with “for each compound was” for “for each tested compound was”, “Standards Institute (CLSI).^6 In a” for “Standards Institute (CLSI). In a”, “concentration of test compound that” for “concentration of compound that”, “37° C. The concentration range tested for each compound during this study was 0.10 to 100 μM. DMSO served” for “37° C. (MIC values were supported by spectrophotometric readings at OD600). DMSO served”, “1% v/v. All MIC values were obtained from a minimum of three independent experiments.” for “1% v/v.”

MRSA BAA-1707 = test: MIC broth microdilution, MRSA BAA-1707; type: cell-based, Staphylococcus aureus
Protocol: as §1, with “The MIC was defined as the lowest concentration of compound that prevented bacterial growth after incubating 16 to 18 hours at 37° C.” left out
as §2

C. albicans SC5314 = test: Fungal MIC susceptibility assay, C. albicans; type: cell-based, Candida albicans; settings: Candida albicans, SC5314; Table 4; antifungal
Protocol: (§3) Fungal minimum inhibition concentrations (MICs) were determined using standard microdilution methods according to the Clinical and Laboratory Standards Institute document M27-A3. The test compound concentration ranged from 0.01 to 100 μM. Amphotericin B (AmB) and itraconazole (ITC) (Fisher Scientific) were included as positive controls. DMSO, the vehicle control, was used at ≤1% v/v for these experiments. The fungal M27-A3 standard MIC assay protocol requires the following inoculum preparation protocol: The organisms were cultured onto PDA medium at 35° C. The inoculum is prepared by picking five colonies from 24-hour old culture of Candida spp. or 48-hour old culture of C. neoformans. The inoculum was suspended in 5 ml of sterile water, the resulting suspension was vortexed for 15 seconds and the cell density adjusted (by adding more sterile water) to an OD530=0.30, which yields a suspension of 1×10^6 to 5×10^6 cells per mL. The suspension was diluted 50 times and then 20 times using RPMI 1640 medium to obtain the two times test inoculum (1×10^3 to 5×10^3 cells per mL). The following steps are the same with the standard bacterial MIC protocol using 96-well plates. NOTE: RPMI 1640 medium was used in the fungal MIC assay (for both cell inoculum and compound dilution).

C. neoformans ATCC 66031 = test: Fungal MIC susceptibility assay, C. neoformans; type: cell-based; settings: Cryptococcus neoformans, ATCC66031; Table 4; antifungal; read-out: MIC C. neof 66031
Protocol: as §3

[9] = system: human red blood cells (hRBC); test: Hemolysis of red blood cells; type: cell-based; settings: Table 4; concentration required to lyse 50% of red blood cells
Protocol: The washing was repeated three times with the buffer. In a 96-well plate, test compounds were added to the buffer from DMSO stocks. […] The plate was then incubated for 1 hour at 37° C. After incubation, the plate was centrifuged for 5 minutes at 3,500 rpm. Then 80 μL of the supernatant was transferred to another 96-well plate and the optical density (OD) was read at 405 nm. DMSO served as our negative control (0% hemolysis) while Triton X served as our positive control (100% hemolysis). […] All reported data correspond to three independent experiments. Ten-point dose-response curves were generated in 96-well plates to determine 50% hemolysis (HC50 values) of red blood cells.
The washing was repeated three times with the buffer. In 96-well plate, the test compounds were added to the buffer. Then 50 μL of 2% of hRBCs in the buffer were added to the test plate to make the final concentrations ranging from 0.2 to 200 μM of each test compound. The plate was then incubated for 1 hour at 37° C. After incubation, the plate was centrifuged for 5 minutes at 3500 rpm and then 80 μL of the supernatant was transferred to another 96-well plate and the Optical Density (OD) was read at 405 nm. DMSO served as our negative control (0% haemolysis) and Triton X served as our positive control (100% haemolysis). The HC50 (concentration of test compound required to lyse red blood cells by 50%) was calculated by plotting the dose-response curve (not shown) with Graphpad Prism 6.0. All data were obtained from three independent haemolysis experiments.

CCCCCCCCCCCCCCCCn1cc[n+](-c2ccc(Cl)cc2)c1C.[Br-] [Compound 6]
3.13 µM: MIC ([4]; Table 1B) | MIC ([4]; Table 3) | MIC ([6]; Table 1B) | MIC ([6]; Table 3) | MIC MRSA-2 ([6]; Table 4) | MIC (MRSA BAA-1707; Table 1B, read-out: MIC MRSA BAA-1707) | MIC (MRSA BAA-1707; Table 3, read-out: MIC MRSA BAA-1707) | MIC MRSA 1707 (MRSA BAA-1707; Table 4)
1.56 µM: MIC VRE 700221 [5]
1.17a micromolar: MIC MRSE 35984 [8]
>100 µM: MIC PAO1 [3]
12.5 µM: MIC A. bau. 1794 [1]
6.25 µM: MIC UAEC-1 [2] | MIC K. pneu. 13883 [7]

CCCCCCCCCCCCCCCCn1cc[n+](Cc2ccc(C[n+]3ccn(CCCCCCCCCCCCCCCC)c3C)cc2)c1C [Compound 28]
> 100 µM: MIC ([1]; Acinetobacter baumannii, ATCC1794, read-out: MIC A. bau. 1794) | MIC ([2]; Escherichia coli) | MIC ([3]; Pseudomonas aeruginosa, PAO1) | MIC ([5]; read-out: MIC VRE 700221) | MIC ([6]; Staphylococcus aureus, MRSA, Table 4) | MIC ([7]; Klebsiella pneumoniae, ATCC13883, read-out: MIC K. pneu. 13883) | MIC ([8]; Staphylococcus epidermidis, read-out: MIC MRSE 35984) | MIC (MRSA BAA-1707; Staphylococcus aureus, Table 4, read-out: MIC MRSA 1707)
50 µM: MIC (C. albicans SC5314)
25 µM: MIC (C. neoformans ATCC 66031)

CCCCCCCCCCCCCCCCn1cc[n+](Cc2ccccc2C[n+]2ccn(CCCCCCCCCCCCCCCC)c2C)c1C.[Br-].[Br-] [Compound 29]
>100 µM: MIC A. bau. 1794 [1] | MIC UAEC-1 [2] | MIC PAO1 [3] | MIC VRE 700221 [5] | MIC MRSA-2 ([6]; Table 4) | MIC K. pneu. 13883 [7] | MIC MRSE 35984 [8] | MIC MRSA 1707 (MRSA BAA-1707; Table 4)
34.5 µM: RBC HC50 [9]
